Data taken from patent US20250041296A1, “NOVEL DOSING REGIMENS FOR MDM2 INHIBITORS” (NOVARTIS AG, priority 2018, published 2025).

Assays:
[1] = Population PK/PD model parameter estimates (NLME, Monolix) from the CHDM201X2101 dataset; set-up: species or system human; conditions: method=FIXED
Excerpt: For model building the PK/PD dataset of CHDM201X2101 were used and an NLME estimation (Monolix 4.3.2) performed. The model structure and the parameter estimates are provided below. This provided inputs for R/shiny. The m/xR package were used for simulation of longitudinal data from the MLXTRAN model.

R/R AML subjects = test: Clinical study CHDM201X2101, single agent HDM201; format: in vivo, human
Description: HDM201 is a novel investigational agent with promising single-agent activity in AML patients. Study CHDM201X2101 investigated several dose regimens of single agent HDM201 in R/R AML subjects. CR/CRi rate of 24% was reported in subjects with R/R AML who received oral HDM201 at a dose of 45 mg from D1 to D7 every 4 weeks (Q4W) (Regimen 2C), which was the dose assessed as recommended dose for expansion (RDE).
The starting dose and regimen selection for HDM201 in dose escalation is based on the previous Phase I dose escalation and expansion study of HDM201 as a single-agent in subjects with R/R AML ([HDM201X2101]). In this Phase I study, HDM201 was investigated in subjects with solid tumors and hematological malignancies. A total of 27 subjects with hematological malignancies (26 AML and one acute lymphoblastic leukemia (ALL)) have been enrolled across various regimens. […] According to HDM201X2101, Regimen 2C was determined to be the recommended Phase 2 dose (RP2D) for further development of HDM201 as a single-agent.
With this regimen, the RD has been determined as 45 mg HDM201 in hematological tumors in the CHDM201X2101 study. […] Proceedings of the American Association for Cancer Research Annual Meeting 2017; 2017 Apr. 1-5; Washington, DC. Philadelphia (PA): AACR; Cancer Res 2017; 77(13 Suppl):Abstract nr CT154. doi:10.1158/1538-7445.AM2017-CT154).

p53 = conditions: preclinical cell and in vivo models; cited from earlier work
[2] = test system: solid and hematological tumors; conditions: versus original day 1 to day 7 regimen of a 28-day cycle; cited from earlier work
solid tumor subjects = test: Clinical study CMBG453X2101, MBG453 single agent; format: in vivo, human; conditions: any dose up to 1200 mg Q2W or Q4W
Description: (§1) The MBG453 single agent RD has been determined as 800 mg Q4W in solid tumor subjects primarily based on PK and PKPD modeling of target (TIM-3) occupancy. MBG453 at the dose level of 800 mg Q4W was predicted to give sustained target occupancy of 90% in tumor in >90% of subjects. […] MBG453 single agent is also being evaluated in AML/MDS subjects in the CPDR001X2105 study with Q4W and Q2W regimens.

AML/MDS subjects = test: Clinical study CPDR001X2105, MBG453 single agent; format: in vivo, human; conditions: 400 mg Q2W and 800 mg Q4W
Description: as §1
The RD in AML/MDS has not yet been determined, however it is not expected to be different from solid tumors, based on preliminary PK and safety data.

[3] = R/R AML subjects, single agent HDM201
[4] = subjects treated at RDE (Regimen 2C: 45 mg D1 to D7 Q4W)

| Molecule | pop_Cl [1] | pop_V [1] | pop_ka [1] | most common grade 3/4 AE reported as suspected to study treatment (R/R AML subjects; 27 subjects with hematological malignancies across various regimens) | CR/CRi rate (R/R AML subjects; R/R AML subjects, oral 45 mg D1 to D7 Q4W (Regimen 2C)) [%] | duration of responses (R/R AML subjects; [3]) | time at which response was seen (R/R AML subjects; [3]) | gastro-intestinal AEs, grade (R/R AML subjects; [4]) | tumor lysis syndrome (TLS) Grade 3 or 4 (R/R AML subjects; [4]) | effect on p53 function (p53) | anti-tumor activity when administration is shortened to 5 consecutive days [2] | safety signal (solid tumor subjects) | tolerability (AML/MDS subjects) |
| --- | --- | --- | --- | --- | --- | --- | --- | --- | --- | --- | --- | --- | --- |
| COc1ncc(-c2nc3c(n2C(C)C)[C@H](c2ccc(Cl)cc2)N(c2cc(Cl)cn(C)c2=O)C3=O)c(OC)n1 [HDM201, (S)-5-(5-Chloro-1-methyl-2-oxo-1,2-dihydro-pyridin-3-yl)-6-(4-chloro-phenyl)-2-(2,4-dimethoxy-pyrimidin-5-yl)-1-isopropyl-5,6-dihydro-1H-pyrrolo[3,4-d]imidazol-4-one] | pop_Cl = 6.18 [method=FIXED], | pop_V = 119 [method=FIXED], | pop_ka = 0.489 [method=FIXED], | thrombocytopenia, neutropenia, anemia and Tumor Lysis Syndrome (TLS) | 24 | up to 152 days | within the first two cycles | only low grade | about 10% | restore p53 function | relevant anti-tumor activity | – | – |
| MBG453: TIM-3 inhibitor MBG453 (Novartis), given by i.v. infusion | – | – | – | – | – | – | – | – | – | – | – | No significant safety signal | well tolerated |
